In patent publication US4476122A, “Alkyloximes of 7-amino-thiazolyl-acetamido-cephalosporanic acids” (Roussel Uclaf, priority 1976, dated 1984):
In brackets after ≈: the same amount, converted by molar mass. Like-named read-outs stand apart in the source and are kept apart here.

How the values were obtained:
[1] = system: Bacillus subtilis ATCC 6 633; test: MIC, liquid medium dilution; assay type: cell-based
Protocol: (§1) The method used was a dilution of a liquid medium where a series of tubes received the same quantity of a sterile nutritive media and increasing doses of the test compounds were placed therein. Then each tube was seeded with a bacterial strain and was incubated for 24 or 48 hours at 37° C. in an oven. The increasing inhibition was determined by transillumination to determine the minimum inhibiting concentration (MIC in μg/ml) and the results are reported in the following Tables.

Enterobacter cloacae 681 = test: MIC, liquid medium dilution; assay type: cell-based
Protocol: as §1

[2] = system: Escherichia Coli Exp. TO26 B6; test: MIC, liquid medium dilution; assay type: cell-based
Protocol: as §1

[3] = system: Escherichia Coli Resistant Gentamicine, Tobramycine R 55 123 D; test: MIC, liquid medium dilution; assay type: cell-based
Protocol: as §1

[4] = system: Escherichia Coli Resistant Tetracycline ATCC 11 303; test: MIC, liquid medium dilution; assay type: cell-based
Protocol: as §1

[5] = system: Escherichia Coli Sensitive Tetracycline ATCC 9 637; test: MIC, liquid medium dilution; assay type: cell-based
Protocol: as §1

[6] = system: Klebsiella pneumoniae 2 536 Resistant Gentamicine; test: MIC, liquid medium dilution; assay type: cell-based
Protocol: as §1

[7] = system: Klebsiella pneumoniae Exp. 52 145; test: MIC, liquid medium dilution; assay type: cell-based
Protocol: as §1

[8] = system: Proteus mirabilis (indol-) A 235; test: MIC, liquid medium dilution; assay type: cell-based
Protocol: as §1

[9] = system: Proteus vulgaris (indol+) A 232; test: MIC, liquid medium dilution; assay type: cell-based
Protocol: as §1

Providencia Du 48 = test: MIC, liquid medium dilution; assay type: cell-based
Protocol: as §1

[10] = system: Salmonella typhimurium 420; test: MIC, liquid medium dilution; assay type: cell-based; details: Salmonella enterica
Protocol: as §1

[11] = system: Serratia Resistant Gentamicine 2 532; test: MIC, liquid medium dilution; assay type: cell-based
Protocol: as §1

[12] = system: Staphylococcus aureus ATCC 6 538 Pen-Sensitive; test: MIC, liquid medium dilution; assay type: cell-based
Protocol: as §1

[13] = system: Staphylococcus aureus UC 1 128 Pen-Resistant; test: MIC, liquid medium dilution; assay type: cell-based
Protocol: as §1

[14] = system: Staphylococcus aureus exp. n° 54 146; test: MIC, liquid medium dilution; assay type: cell-based
Protocol: as §1

[15] = system: Streptococcus faecalis 5 432; test: MIC, liquid medium dilution; assay type: cell-based
Protocol: as §1

[16] = system: Streptococcus faecalis 99 F 74; test: MIC, liquid medium dilution; assay type: cell-based; details: Enterococcus faecalis
Protocol: as §1

[17] = system: Streptococcus pyogenes A 561; test: MIC, liquid medium dilution; assay type: cell-based
Protocol: as §1

[18] = system: Escherichia coli (T) O26 B6; test: Experimental infection with Escherichia coli (T) O26 B6 in mice; assay type: in vivo; details: s. c.
Protocol: The products of Example 6 and 10 were studied for their activity against an experimental infection of Escherichia coli in groups of 10 male mice weighing about 22 g. The mice received an intraperitoneal injection of 0.5 ml of a 24 hour old culture in a nutritive media of Escherichia coli (T) O26 B6 of the Pasteur Institute diluted 1/5.5 with distilled water. The test product was administered subcutaneously or orally 1 hour and 5 and 24 hours after the infection and the number of dead was determined during 8 days.

[19] = system: Klebsiella pneumonia 52,145; test: Experimental infection with Klebsiella pneumonia in mice (C); assay type: in vivo; details: subcutaneous
Protocol: The activity of the products of Examples 4 and 6 was studied on an experimental infection of Klebsiella pneumonia in mice. Groups of 10 male mice weighing 21 g were infected by an intraperitoneal injection of 0.5 ml of a culture in nutrive media of Klebsiella pneumonia 52,145 diluted by 1/1000 with distilled water. The products were administered subcutaneously 30 minutes, 4, 8, 24 and 32 hours after the injection and the number of dead mice was determined during 10th days.

[20] = Enterobacter cloacae, 681, 48 h
[21] = Enterococcus faecalis, 5432, 24 h
[22] = Enterococcus faecalis, 5432, 48 h

CO/N=C(/C(=O)NC1C(=O)N2C(C(=O)O)=C(CSC(C)=O)CSC12)c1csc(N)n1 (stereo not drawn) [Example 17, 3-acetylthiomethyl-7-[{2-(2-amino-4-thiazolyl)-2-methoxyiminoacetyl}amino]-ceph-3-eme-4-carboxylic acid]
MIC ([1]; ATCC6, 24 h): 5 µg/mL (≈ 10.6 µM) | MIC ([1]; ATCC6, 48 h): 20 µg/mL (≈ 42.4 µM) | MIC (Enterobacter cloacae 681; Enterobacter cloacae, 681, 24 h): 40 µg/mL (≈ 84.8 µM) | MIC (Enterobacter cloacae 681; [20]): 100 µg/mL (≈ 212 µM) | MIC ([2]; 24 h): 20 µg/mL (≈ 42.4 µM) | MIC ([2]; 48 h): 40 µg/mL (≈ 84.8 µM) | MIC ([3]; 24 h): 40 µg/mL (≈ 84.8 µM) | MIC ([3]; 48 h): 40 µg/mL (≈ 84.8 µM) | MIC ([4]; ATCC11, 24 h): 5 µg/mL (≈ 10.6 µM) | MIC ([4]; ATCC11, 48 h): 5 µg/mL (≈ 10.6 µM) | MIC ([5]; ATCC9, 24 h): 40 µg/mL (≈ 84.8 µM) | MIC ([5]; ATCC9, 48 h): 40 µg/mL (≈ 84.8 µM) | MIC ([6]; 24 h): > 100 µg/mL | MIC ([6]; 48 h): > 100 µg/mL | MIC ([7]; EXP.52145, 24 h): 40 µg/mL (≈ 84.8 µM) | MIC ([7]; EXP.52145, 48 h): 40 µg/mL (≈ 84.8 µM) | MIC ([8]; 24 h): 5 µg/mL (≈ 10.6 µM) | MIC ([8]; 48 h): 40 µg/mL (≈ 84.8 µM) | MIC ([9]; 24 h): > 100 µg/mL | MIC ([9]; 48 h): > 100 µg/mL | MIC (Providencia Du 48; DU48, 24 h): > 100 µg/mL | MIC (Providencia Du 48; DU48, 48 h): > 100 µg/mL | MIC ([10]; 24 h): 40 µg/mL (≈ 84.8 µM) | MIC ([10]; 48 h): 40 µg/mL (≈ 84.8 µM) | MIC ([11]; 24 h): > 100 µg/mL | MIC ([11]; 48 h): > 100 µg/mL | MIC ([12]; ATCC6, 24 h): 20 µg/mL (≈ 42.4 µM) | MIC ([12]; ATCC6, 48 h): 20 µg/mL (≈ 42.4 µM) | MIC ([13]; UC1, 24 h): 40 µg/mL (≈ 84.8 µM) | MIC ([13]; UC1, 48 h): 100 µg/mL (≈ 212 µM) | MIC ([14]; 24 h): 40 µg/mL (≈ 84.8 µM) | MIC ([14]; 48 h): 40 µg/mL (≈ 84.8 µM) | MIC [15, 21]: > 100 µg/mL | MIC [15, 22]: > 100 µg/mL | MIC ([16]; 99F74, 24 h): > 100 µg/mL | MIC ([16]; 99F74, 48 h): > 100 µg/mL | MIC ([17]; A561, 24 h): 0.2 µg/mL (≈ 0.424 µM) | MIC ([17]; A561, 48 h): 0.2 µg/mL (≈ 0.424 µM)

CO/N=C(\C(=O)NC1C(=O)N2C(C(=O)O)=C(CSC(C)=O)CSC12)c1csc(N)n1 (stereo not drawn) [Example 6, 3-acetylthiomethyl-7-[{2-(2-amino-4-thiazolyl)-2-methoxyiminoacetyl}amino]-ceph-3-eme-4-carboxylic acid]
MIC ([1]; ATCC6, 24 h): 1 µg/mL (≈ 2.12 µM) | MIC ([1]; ATCC6, 48 h): 2 µg/mL (≈ 4.24 µM) | MIC (Enterobacter cloacae 681; Enterobacter cloacae, 681, 24 h, read-out: MIC): 10 µg/mL (≈ 21.2 µM) | MIC (Enterobacter cloacae 681; [20]): 20 µg/mL (≈ 42.4 µM) | MIC ([2]; 24 h): 0.4 µg/mL (≈ 0.848 µM) | MIC ([2]; 48 h): 0.4 µg/mL (≈ 0.848 µM) | MIC ([3]; 24 h, read-out: MIC): 0.6 µg/mL (≈ 1.27 µM) | MIC ([3]; 48 h): 0.6 µg/mL (≈ 1.27 µM) | MIC ([4]; ATCC11, 24 h, read-out: MIC): 0.1 µg/mL (≈ 0.212 µM) | MIC ([4]; ATCC11, 48 h, read-out: MIC): 0.1 µg/mL (≈ 0.212 µM) | MIC ([5]; ATCC9, 24 h, read-out: MIC): 0.6 µg/mL (≈ 1.27 µM) | MIC ([5]; ATCC9, 48 h): 0.6 µg/mL (≈ 1.27 µM) | MIC ([6]; 24 h): 1 µg/mL (≈ 2.12 µM) | MIC ([6]; 48 h): 2 µg/mL (≈ 4.24 µM) | MIC ([7]; EXP.52145, 24 h, read-out: MIC): 0.1 µg/mL (≈ 0.212 µM) | MIC ([7]; EXP.52145, 48 h, read-out: MIC): 0.1 µg/mL (≈ 0.212 µM) | MIC ([8]; 24 h): 0.05 µg/mL (≈ 0.106 µM) | MIC ([8]; 48 h, read-out: MIC): 0.1 µg/mL (≈ 0.212 µM) | MIC ([9]; 24 h): 5 µg/mL (≈ 10.6 µM) | MIC ([9]; 48 h, read-out: MIC): 10 µg/mL (≈ 21.2 µM) | MIC (Providencia Du 48; DU48, 24 h, read-out: MIC): 10 µg/mL (≈ 21.2 µM) | MIC (Providencia Du 48; DU48, 48 h, read-out: MIC): 10 µg/mL (≈ 21.2 µM) | MIC ([10]; 24 h): 0.4 µg/mL (≈ 0.848 µM) | MIC ([10]; 48 h): 0.4 µg/mL (≈ 0.848 µM) | MIC ([11]; 24 h): 1 µg/mL (≈ 2.12 µM) | MIC ([11]; 48 h): 2 µg/mL (≈ 4.24 µM) | MIC ([12]; ATCC6, 24 h): 2 µg/mL (≈ 4.24 µM) | MIC ([12]; ATCC6, 48 h): 2 µg/mL (≈ 4.24 µM) | MIC ([13]; UC1, 24 h): 5 µg/mL (≈ 10.6 µM) | MIC ([13]; UC1, 48 h): 5 µg/mL (≈ 10.6 µM) | MIC ([14]; 24 h): 2 µg/mL (≈ 4.24 µM) | MIC ([14]; 48 h): 2 µg/mL (≈ 4.24 µM) | MIC [15, 21]: 5 µg/mL (≈ 10.6 µM) | MIC [15, 22]: 5 µg/mL (≈ 10.6 µM) | MIC ([16]; 99F74, 24 h): 5 µg/mL (≈ 10.6 µM) | MIC ([16]; 99F74, 48 h): > 40 µg/mL | MIC ([17]; A561, 24 h, read-out: MIC): ≤ 0.02 µg/mL | MIC ([17]; A561, 48 h, read-out: MIC): ≤ 0.02 µg/mL | Mice surviving on the 8th day ([18]; 3 × 0,1 mg): 5/10 | Mortality after 5 H 30 (number of dead of 10) ([18]; 3 × 0,1 mg): 1 | Mortality after 21 H 30 (number of dead of 10) ([18]; 3 × 0,1 mg): 1 | Mortality after 24 H (number of dead of 10) ([18]; 3 × 0,1 mg): 1 | Mortality after 47 H (number of dead of 10) ([18]; 3 × 0,1 mg): 2 | Mice surviving on the 8th day ([18]; 3 × 0,2 mg): 7/10 | Mortality after 21 H 30 (number of dead of 10) ([18]; 3 × 0,2 mg): 1 | Mortality after 47 H (number of dead of 10) ([18]; 3 × 0,2 mg): 1 | Mortality after 70 H (number of dead of 10) ([18]; 3 × 0,2 mg): 1 | Mice surviving on the 8th day ([18]; 3 × 0,3 mg): 10/10 | Mice surviving on the 8th day ([18]; 3 × 0,05 mg): 4/10 | Mortality after 5 J (number of dead of 10) ([18]; 3 × 0,05 mg): 1 | Mortality after 21 H 30 (number of dead of 10) ([18]; 3 × 0,05 mg): 4 | Mortality after 54 H (number of dead of 10) ([18]; 3 × 0,05 mg): 1 | Mice alive on the 10th day ([19]; 5 × 0,5 mg): 10/10 | Mice alive on the 10th day ([19]; 5 × 0,25 mg): 10/10 | Mice alive on the 10th day ([19]; 5 × 1 mg): 10/10
